{
  "source": "patent US9295671B2",
  "about": "“Benzenesulfonamide derivatives of quinoxaline, pharmaceutical compositions thereof, and their use in methods for treating cancer” (NEUPHARMA, INC., priority 2011, dated 2016)",
  "key": {"A375 cells": {"tested_on": "A375 cells", "experiment": "Inhibition of cancer cell growth, MTT assay, A375", "format": "cell-based", "conditions": "Homo sapiens, A-375, 72 h (Table 4)", "method": "(§1) Inhibition of cell growth by compounds was measured using MTT assay (Mosmann, T., Journal of Immunological Methods, 1983, 65, 55-63). Tumor cell lines were purchased from ATCC (American Type Culture Collection, Manassas, Va.). All cell lines were maintained in RPMI 1640 (Hyclone) supplemented with 10% fetal bovine serum (FBS, Hyclone), glutamine (2 mM, Hyclone), and antibiotics (penicillin 100 U/mL and streptomycin 50 μg/mL) at 37° C. in a humidified atmosphere of 5% CO2 in air. Taxol (as a positive control, Sigma) and compounds were dissolved in DMSO (Sigma), and the final concentration of DMSO in the medium was 1%. Tumor cells were plated in 96-well plates at densities of about 4000 cells/well of a 96-well plate and allowed to adhere/grow for 24 h. They were then treated with various concentrations of drug for 72 h. 3-(4,5-Dimethylthiazol-2-yl)-2,5-diphenyltetrazolium bromide (MTT, Sigma) was used to determine the number of viable cells at the time of compound addition and the number of cells remaining after 72 h compound exposure. The number of cells remaining after 72 h was compared to the number of viable cells at the time of compound addition by measuring the absorbance at 570 nm, allowing for the calculation of growth inhibition.\n(§2) All concentrations of compounds were tested in triplicate and controls were averaged over 4 wells. IC50 was calculated by plotting the concentration of compound vs the percentage of inhibition in treated wells using GraphPad Prism 5.\n(§3) The scale utilized in Table 4 is as follows: +++ less than 500 nM; ++ between 500 nM and 1 μM; and + greater than 1 μM."}, "BRAF": {"molecular_target": "T1, BRAF (Homo sapiens, UniProt P15056)", "T1 construct": "purchased Invitrogen", "experiment": "Z′-LYTE kinase assay, BRAF (Invitrogen)", "format": "biochemical", "conditions": "Z′-LYTE method", "method": "(§4) Inhibitory activities of compounds against BRAF or BRAF V600E were measured by Invitrogen using Z′-LYTE® Method as briefly described in the following.\n(§5) 4× Test compounds are dissolved in 1% DMSO. […] ATP solutions are diluted to a 4×ATP working concentration in Kinase Buffer (50 mM HEPES pH 7.5, 0.01% BRIJ-35, 10 mM MgCl2, 1 mM EGTA).\n(§6) Reaction starts by 30-second shaking of mixture consisting of 2.5 μL4× test compound, […] and 2.5 μL 4×ATP Solution on Bar-coded Corning, low volume NBS, black 384-well plate (Corning Cat. #3676). Then the mixture is incubated for 60-minute at room temperature for the kinase reaction, followed by addition of 5 μL of a 1:1024 dilution of development reagent A and 30-second plate shake. The mixture is then incubated for another 60-minute at room temperature for development reaction. Finally fluorescence is read by plate reader."}, "A549 cells": {"tested_on": "A549 cells", "experiment": "Inhibition of cancer cell growth, MTT assay, A549", "format": "cell-based", "conditions": "Homo sapiens, 72 h", "method": "as §1, §2, §3"}, "BRAF V600E": {"molecular_target": "T2, BRAF V600E (Homo sapiens, UniProt P15056, V600E)", "T2 construct": "purchased Invitrogen", "T2 sequence (P15056 whole entry V600E)": "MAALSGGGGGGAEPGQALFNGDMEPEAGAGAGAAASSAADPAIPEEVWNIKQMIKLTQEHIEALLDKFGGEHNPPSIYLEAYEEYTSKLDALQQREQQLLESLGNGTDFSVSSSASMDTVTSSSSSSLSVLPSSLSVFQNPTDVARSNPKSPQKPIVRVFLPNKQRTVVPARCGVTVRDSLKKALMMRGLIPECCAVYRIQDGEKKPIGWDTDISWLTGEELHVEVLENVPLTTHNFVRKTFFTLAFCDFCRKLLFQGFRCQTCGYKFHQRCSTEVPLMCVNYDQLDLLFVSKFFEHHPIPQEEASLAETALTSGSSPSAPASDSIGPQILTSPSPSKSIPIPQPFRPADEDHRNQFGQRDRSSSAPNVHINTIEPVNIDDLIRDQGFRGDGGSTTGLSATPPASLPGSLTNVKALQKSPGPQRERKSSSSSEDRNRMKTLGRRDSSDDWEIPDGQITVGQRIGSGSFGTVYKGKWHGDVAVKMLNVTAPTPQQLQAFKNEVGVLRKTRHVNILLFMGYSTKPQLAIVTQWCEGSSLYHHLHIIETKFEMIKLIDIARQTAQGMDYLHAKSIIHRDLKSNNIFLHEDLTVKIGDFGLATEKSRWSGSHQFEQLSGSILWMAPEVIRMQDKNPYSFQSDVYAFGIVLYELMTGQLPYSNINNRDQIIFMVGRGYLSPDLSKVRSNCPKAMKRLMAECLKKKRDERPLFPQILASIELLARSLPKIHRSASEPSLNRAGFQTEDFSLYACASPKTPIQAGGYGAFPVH", "experiment": "Z′-LYTE kinase assay, BRAF V600E (Invitrogen)", "format": "biochemical", "conditions": "Z′-LYTE method", "method": "as §4, §5, §6"}},
  "data": [
    {"molecule": "CCCS(=O)(=O)Nc1ccc(F)c(C(=O)c2ccc3nccnc3c2)c1F", "note": "[Compound C01, N-(2,4-difluoro-3-(quinoxaline-6-carbonyl)phenyl)propane-1-sulfonamide]", "values": [
      {"measurement": "IC50", "setting": "A375 cells", "value": "< 0.5", "unit": "µM"},
      {"measurement": "inhibition at 1 µM", "setting": "BRAF", "value": "70 to 89", "unit": "%"},
      {"measurement": "IC50", "setting": "A549 cells", "value": "< 0.5", "unit": "µM"},
      {"measurement": "inhibition at 1 µM", "setting": "BRAF V600E", "value": "> 89", "unit": "%"}
    ]},
    {"molecule": "CCCS(=O)(=O)Nc1ccc(F)c(C(=O)c2ccc3ncc(-c4ccc(Cl)cc4)nc3c2)c1F", "note": "[Compound C02, N-(3-(3-(4-chlorophenyl)quinoxaline-6-carbonyl)-2,4-difluorophenyl)propane-1-sulfonamide]", "values": [
      {"measurement": "IC50", "setting": "A375 cells", "value": "0.5 to 1", "unit": "µM"},
      {"measurement": "inhibition at 1 µM", "setting": "BRAF", "value": "70 to 89", "unit": "%"},
      {"measurement": "IC50", "setting": "A549 cells", "value": "0.5 to 1", "unit": "µM"},
      {"measurement": "inhibition at 1 µM", "setting": "BRAF V600E", "value": "> 89", "unit": "%"}
    ]},
    {"molecule": "CCCS(=O)(=O)Nc1cc(F)cc(C(=O)c2ccc3nccnc3c2)c1", "note": "[Compound C16, N-(3-fluoro-5-(quinoxaline-6-carbonyl)phenyl)propane-1-sulfonamide]", "values": [
      {"measurement": "IC50", "setting": "A375 cells", "value": "> 1", "unit": "µM"},
      {"measurement": "IC50", "setting": "A549 cells", "value": "> 1", "unit": "µM"},
      {"measurement": "inhibition at 1 µM", "setting": "BRAF V600E", "value": "< 70", "unit": "%"}
    ]},
    {"molecule": "CCCS(=O)(=O)Nc1cc(F)c(F)c(C(=O)c2ccc3nccnc3c2)c1Cl", "note": "[Compound C14, N-(2-chloro-4,5-difluoro-3-(quinoxaline-6-carbonyl)phenyl)propane-1-sulfonamide]", "values": [
      {"measurement": "IC50", "setting": "A375 cells", "value": "< 0.5", "unit": "µM"},
      {"measurement": "inhibition at 1 µM", "setting": "BRAF", "value": "> 89", "unit": "%"},
      {"measurement": "IC50", "setting": "A549 cells", "value": "> 1", "unit": "µM"},
      {"measurement": "inhibition at 1 µM", "setting": "BRAF V600E", "value": "70 to 89", "unit": "%"}
    ]},
    {"molecule": "CCCS(=O)(=O)Nc1ccc(F)c(C(=O)c2ccc3ncc(C#N)nc3c2)c1F", "note": "[Compound C05, N-(3-(3-cyanoquinoxaline-6-carbonyl)-2,4-difluorophenyl)propane-1-sulfonamide]", "values": [
      {"measurement": "IC50", "setting": "A375 cells", "value": "0.5 to 1", "unit": "µM"},
      {"measurement": "inhibition at 1 µM", "setting": "BRAF", "value": "70 to 89", "unit": "%"},
      {"measurement": "IC50", "setting": "A549 cells", "value": "< 0.5", "unit": "µM"},
      {"measurement": "inhibition at 1 µM", "setting": "BRAF V600E", "value": "> 89", "unit": "%"}
    ]},
    {"molecule": "CCCS(=O)(=O)Nc1cc(F)c(F)c(C(=O)c2ccc3nccnc3c2)c1", "note": "[Compound C07, N-(3,4-difluoro-5-(quinoxaline-6-carbonyl)phenyl)propane-1-sulfonamide]", "values": [
      {"measurement": "IC50", "setting": "A375 cells", "value": "0.5 to 1", "unit": "µM"},
      {"measurement": "inhibition at 1 µM", "setting": "BRAF", "value": "< 70", "unit": "%"},
      {"measurement": "IC50", "setting": "A549 cells", "value": "> 1", "unit": "µM"},
      {"measurement": "inhibition at 1 µM", "setting": "BRAF V600E", "value": "70 to 89", "unit": "%"}
    ]},
    {"molecule": "CCCS(=O)(=O)Nc1ccc(F)c(C(=O)c2ccc3ncc(N4CCOCC4)nc3c2)c1", "note": "[Compound C17, N-(4-fluoro-3-(3-morpholinoquinoxaline-6-carbonyl)phenyl)propane-1-sulfonamide]", "values": [
      {"measurement": "IC50", "setting": "A375 cells", "value": "> 1", "unit": "µM"},
      {"measurement": "IC50", "setting": "A549 cells", "value": "> 1", "unit": "µM"},
      {"measurement": "inhibition at 1 µM", "setting": "BRAF V600E", "value": "< 70", "unit": "%"}
    ]},
    {"molecule": "CCCS(=O)(=O)Nc1ccc(F)c(C(=O)c2ccc3nccnc3c2)c1", "note": "[Compound C15, N-(4-fluoro-3-(quinoxaline-6-carbonyl)phenyl)propane-1-sulfonamide]", "values": [
      {"measurement": "IC50", "setting": "A375 cells", "value": "> 1", "unit": "µM"},
      {"measurement": "IC50", "setting": "A549 cells", "value": "> 1", "unit": "µM"},
      {"measurement": "inhibition at 1 µM", "setting": "BRAF V600E", "value": "< 70", "unit": "%"}
    ]}
  ]
}
